Data published in PubChem BioAssay AID1963844 (Molecular Pharmacology Branch, DTP, NCI, 2024).
“And” between values parts separate entries of the source, which are not always exact repeats. Equal entries are not always repeated.

System: 422866-222-R5-J1-PDC complex spheroid viability
Assay: Anticancer human tumor 422866-222-R5-J1-PDC patient-derived pancreatic adenocarcinoma cell line growth inhibition [POLQ]
Conditions: for viability, T/C: stronger effect = lower value; for IC50: curve of compound
Experimental: Multicellular complex tumor spheroid response to Polymerase (POL) inhibitors (novobiocin, ART-558, RP6685) in combination with a variety of drugs and investigational agents in selected tumor cell lines
The POL inhibitors (novobiocin, ART-558, and RP6685) were evaluated both individually and in combination with standard of care and investigational anticancer small molecules within a complex spheroid model of solid tumors. . Complex spheroids include a stromal component modeled by human endothelial cells (HUVEC) and fibroblasts modeled by human mesenchymal stem cells (MSCs). The concentration ranges selected for each drug and investigational agent were based upon clinically achievable concentrations if the clinical Cmax of the agent was known.
Compounds. The drugs and investigational agents: novobiocin (NSC847541), ART-558 (NSC835418), RP-6685 (NSC848927), peposertib (NSC802822), ceralasertib (NSC780249), elimusertib (NSC800525), camonsertib (NSC841442), AZD-1390 (NSC803789), olaparib (NSC753686), talazoparib (NSC767125), rucaparib (NSC756644), sotorasib (NSC818433), MRTX-1133 (NSC836407), SN-38 (NSC673596), topotecan (NSC609699), epotoside (NSC141540), doxorubicin (NSC123127), gemcitabine (NSC613327), 5-fluorouracil (NSC19893), paclitaxel (NSC125973), vemurafenib (NSC761431), MSA-2 (NSC828583), SN-011 (NSC837082), adavosertib (NSC754352), prexasertib (NSC758257), carboplatin (NSC241240) and oxaliplatin (NSC266046), were obtained from the National Cancer Institute (NCI) Developmental Therapeutics Program Chemical Repository (21). The FDA-approved anticancer drug set is available from the Developmental Therapeutics Program at https://dtp.cancer.gov/organization/dscb/obtaining/. […] The stock solutions were prepared in dimethyl sulfoxide (DMSO, Sigma-Aldrich, St. Louis, MO, cat. D2650), except for the platinum compounds which were prepared in saline (Quality Biological, Gaithersburg, MD, cat. 114-055-101), at 800-fold the tested concentration and stored at -70 degrees C prior to their use. All drugs and investigational agents were tested over a range starting from a high concentration at or near the clinical Cmax and decreasing in half-log increments. If the clinical Cmax for an agent had not been determined, the highest concentration tested was 10 microM, except for SN-38, which was tested at a high concentration of 1 microM.
Cell Culture. All cells were maintained in an incubator at 37 degrees C and 5% CO2 with 95% humidity. The PDC lines were cultured according to standard operating procedures established by the NCI PDMR (https://pdmr.cancer.gov). Table 3 of the manuscript, lists the cell lines along with the number of the three cell types plated to form the mct-spheroids and media for tumor cell growth. After thawing, all PDC lines, except 997537-175-T-J1-PDC and 415267-285-R-J2-PDC, were cultured in Matrigel-coated flasks prepared with a working solution of 1X Ham's F-12 nutrient mix, without supplementation (Thermo Fisher Scientific, cat. 11765054), 100 U/mL penicillin-streptomycin (Thermo Fisher Scientific, cat. 15140122), and 2.5% Matrigel (Corning Inc., Corning, NY, cat. 354248) for the first three passages. The two PDC lines 997537-175-T-J1-PDC and 415267-285-R-J2-PDC were cultured on uncoated flasks. The 857933-349-R-J2-PDC line was cultured in 6C/Colon 1B media containing advanced DMEM/F-12 (Thermo Fisher Scientific, cat. 12634028), 10 mM HEPES (Thermo Fisher Scientific, cat. 15630080), 1X GlutaMAX supplement (Thermo Fisher Scientific, cat. 35050061), 0.1 mg/mL primocin (InvivoGen, San Diego, CA, cat. ant-pm-2), 10% defined fetal bovine serum, heat inactivated (HyClone Laboratories Inc., Logan, UT, cat. SH30070.03HI), 50% L-WRN conditioned media (ATCC, cat. CRL-3276), 1.25 mM N-Acetyl-L-cysteine (Sigma-Aldrich, cat. A9165), 10 mM nicotinamide (Sigma-Aldrich, cat. N0636), 1X B-27 supplement (Thermo Fisher Scientific, cat. 17504044), 1X N-2 supplement (Thermo Fisher Scientific, cat. […]
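Note: spheroids exposed to compounds for one week before readout.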
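Throughout, for viability, T/C: percent of DMSO vehicle wells luminescence so 100% = untreated viability.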

| Structure (SMILES) | viability, T/C (compound 0.0316 µM) | viability, T/C (compound 0.1 µM) | viability, T/C (compound 0.316 µM) | viability, T/C (compound 1 µM) | viability, T/C (compound 3.16 µM) | viability, T/C (compound 10 µM) | IC50 | viability, T/C (compound 0.00316 µM) | viability, T/C (compound 0.01 µM) | viability, T/C (compound 0.00949 µM) | viability, T/C (compound 0.03 µM) | viability, T/C (compound 0.0949 µM) | viability, T/C (compound 0.3 µM) | viability, T/C (compound 0.949 µM) | viability, T/C (compound 3 µM) | viability, T/C (compound 0.000316 µM) | viability, T/C (compound 0.001 µM) |
| --- | --- | --- | --- | --- | --- | --- | --- | --- | --- | --- | --- | --- | --- | --- | --- | --- | --- |
| C#Cc1c(F)ccc2cc(O)cc(-c3ncc4c(N5CC6CCC(C5)N6)nc(OCC56CCCN5CC(F)C6)nc4c3F)c12 (stereo unspecified) | 93% and 91.1% and 102% | 80.5% and 89.6% and 83.2% | 60.1% and 59.7% and 68.7% | 44% and 50.6% and 51.8% | 33.9% and 34.4% and 34.3% | 26.9% and 24.2% and 26% | 666 nM and 869 nM and 1060 nM | – | – | – | – | – | – | – | – | – | – |
| C=CC(=O)N1CCN(c2nc(=O)n(-c3c(C)ccnc3C(C)C)c3nc(-c4c(O)cccc4F)c(F)cc23)C(C)C1 (stereo unspecified) | 30.6% and 30.5% and 34.5% | 23.7% and 28.7% and 31.4% | 24.4% and 29.1% and 24.3% | 23.3% and 29.6% and 26.2% | 25.1% and 22.9% and 26.6% | 28.1% and 23.5% and 24.2% | < 31.6 nM | – | – | – | – | – | – | – | – | – | – |
| C=CCn1c(=O)c2cnc(Nc3ccc(N4CCN(C)CC4)cc3)nc2n1-c1cccc(C(C)(C)O)n1 | 105% and 93.5% and 83.3% | 85.7% and 91% and 78.1% | 56% and 43.9% and 56.5% | 36% and 31% and 34.6% | – | – | 434 nM and 272 nM and 446 nM | 86.1% and 96.9% and 101% | 105% and 93% and 107% | – | – | – | – | – | – | – | – |
| CC(=O)O[C@H]1C(=O)[C@@]2(C)[C@H]([C@H](OC(=O)c3ccccc3)[C@]3(O)C[C@H](OC(=O)[C@H](O)[C@@H](NC(=O)c4ccccc4)c4ccccc4)C(C)=C1C3(C)C)[C@]1(OC(C)=O)CO[C@@H]1C[C@@H]2O | – | – | – | – | – | – | > 3000 nM | – | – | 50.9% and 53.8% and 66.3% | 50.2% and 51.8% and 56.2% | 54.2% and 52.1% and 68.6% | 64.3% and 52.8% and 60.4% | 53.7% and 57.4% and 68.9% | 61.5% and 58.4% and 69.8% | – | – |
| CC(C)n1c(=O)n(C)c2cnc3cc(F)c(-c4ccc(OCCCN5CCCCC5)nc4)cc3c21 | 105% and 90.3% and 107% | 98.6% and 91.8% and 89.1% | 110% and 103% and 104% | – | 93.9% and 88.3% and 79.2% | 70.4% and 52.7% and 75.8% | > 10000 nM | – | – | – | – | – | – | – | – | – | – |
| CC1COCCN1c1cc(-c2ccnn2C)c2ccnc(-c3ccn[nH]3)c2n1 (stereo unspecified) | 76.8% and 96.8% and 97.8% | 61.1% and 55.4% and 46.2% | 38.6% and 42.8% and 35.1% | 44.4% and 36.6% and 37.6% | 80.4% and 81.7% and 64% | 69.2% and 80.5% and 68.2% | > 10000 nM and 10000 nM | – | – | – | – | – | – | – | – | – | – |
| CC1COCCN1c1cc(C2(O)CC3CCC(C2)O3)c2cnn(-c3ccn[nH]3)c2n1 (stereo unspecified) | 81.2% and 74.1% and 69.6% | 53.5% and 43.4% and 42.3% | 50.6% and 44.2% and 35.5% | 84% and 70.7% and 73.2% | 80.6% and 79% and 77.3% | 65.8% and 78.8% and 62.6% | > 10000 nM | – | – | – | – | – | – | – | – | – | – |
| CC1COCCN1c1cc(C2(S(C)(=N)=O)CC2)nc(-c2ccnc3[nH]ccc23)n1 (stereo unspecified) | 92.3% and 91.5% and 116% | 101% and 93.1% and 100% | 93.4% and 95.6% and 96.3% | 74% and 72.6% and 85.2% | 49.9% and 44.6% and 41.7% | 39.9% and 30.8% and 42% | 3010 nM and 2460 nM and 2640 nM | – | – | – | – | – | – | – | – | – | – |
| CCCS(=O)(=O)Nc1ccc(F)c(C(=O)c2c[nH]c3ncc(-c4ccc(Cl)cc4)cc23)c1F | 102% and 117% and 105% | 115% and 138% and 140% | 130% and 119% and 128% | 163% (2×) and 148% | 194% and 210% and 192% | – | > 10000 nM | – | – | – | – | – | – | – | – | – | – |
| CC[C@@]1(O)C(=O)OCc2c1cc1n(c2=O)Cc2cc3c(CN(C)C)c(O)ccc3nc2-1 | 48.4% and 37.3% and 41.3% | 36% and 32.2% and 33.8% | – | – | – | – | 28.8 nM and 20 nM and 21.1 nM | 88% and 77% and 98.9% | 70.4% and 68.2% and 68.5% | – | – | – | – | – | – | 104% and 91% and 103% | 106% and 95.4% and 94.5% |
| CCc1c2c(nc3ccc(O)cc13)-c1cc3c(c(=O)n1C2)COC(=O)[C@]3(O)CC | 39.4% and 34.2% and 30.3% | 39.1% and 34% and 31.1% | 32.7% and 37.2% and 29.6% | 24.8% and 18.2% and 24.5% | – | – | < 3.16 nM | 44.8% and 37.1% and 42.1% | 37.5% and 32.6% and 33.8% | – | – | – | – | – | – | – | – |
| CCc1cc2c(N3CCc4c(cc(Cn5ccnc5)cc4-c4cn(C)nc4C(F)(F)F)C3=O)cc(C)nc2c(OC)n1 | 89.5% and 92.6% and 79.2% | 93.5% and 80.2% and 93.8% | 96.5% and 104% and 95.6% | 120% and 102% and 96.1% | – | 109% and 99.8% and 115% | > 10000 nM | – | – | – | – | – | – | – | – | – | – |
